Experimental data reported in US9604933B2, “Pyrazolochalcones as potential anticancer agents” (COUNCIL OF SCIENTIFIC AND INDUSTRIAL RESEARCH, priority 2013, dated 2017).
Read-outs that look alike come from different tables or passages of the source.

Legend:
K-562 = experiment: NCI SRB cytotoxicity, leukemia K-562; assay type: cell-based; conditions: Homo sapiens, K562, 48 h exposure
Procedure: (§1) The pyrazolochalcones (7e, 8e, 10e, 11e, 12e, 13e and 8f) have been tested against fifty nine human tumor cell lines derived from nine cancer types (leukemia, non-small cell lung cancer, colon cancer, CNS cancer, melanoma, ovarian cancer, renal cancer, prostate cancer and breast cancer) as per the NCI protocol. For each compound, dose response curves for individual cell lines have been measured at a minimum of five concentrations at 10 fold dilutions. A protocol of 48 h continuous drug exposure has been used, and a sulforhodamine B (SRB) protein assay has been used to estimate cell viability or growth. The concentration for 50% cell growth inhibition (GI50), 50% cell death (LC50, 50% growth) and total cell growth inhibition (TGI, 0% growth) values were tabulated (Table-1). DMSO was used as control to calculate the values of GI50, LC50 and TGI. The compounds 7e, 8e, 10e, 11e, 12e, 13e and 8f has been evaluated for their in vitro cytotoxicity in […] cell lines from nine human cancer types of leukemia (K-562, SR), non-small cell lung (Hop-62, NCI-H226, NCI-H522), colon (HCT-116, HCT-15, HCC-2998), CNS (SF-539), melanoma (SK-MEL-5, UACC-62, M14), ovarian (IGROV1), renal (A498), prostate (PC3) and breast (BT-549, MDA-MB-435, HS578T) origin. The results are expressed as percent of cell growth determined relative to that of untreated control cells (Table 2).

RPMI-8226 = experiment: NCI SRB cytotoxicity, leukemia RPMI-8226; assay type: cell-based; conditions: Homo sapiens, 48 h exposure
Procedure: as §1

HOP-62 = experiment: NCI SRB cytotoxicity, non-small cell lung HOP-62; assay type: cell-based; conditions: Homo sapiens, 48 h exposure
Procedure: as §1

NCIH322M = experiment: NCI SRB cytotoxicity, non-small cell lung NCIH322M; assay type: cell-based; conditions: Homo sapiens, NCI-H322M, 48 h exposure
Procedure: as §1

HCT-116 = experiment: NCI SRB cytotoxicity, colon HCT-116; assay type: cell-based; conditions: Homo sapiens, 48 h exposure
Procedure: as §1

HT29 = experiment: NCI SRB cytotoxicity, colon HT29; assay type: cell-based; conditions: Homo sapiens, HT-29, 48 h exposure
Procedure: as §1

KM12 = experiment: NCI SRB cytotoxicity, colon KM12; assay type: cell-based; conditions: Homo sapiens, 48 h exposure
Procedure: as §1

SF-539 = experiment: NCI SRB cytotoxicity, CNS SF-539; assay type: cell-based; conditions: Homo sapiens, 48 h exposure
Procedure: as §1

SNB-19 = experiment: NCI SRB cytotoxicity, CNS SNB-19; assay type: cell-based; conditions: Homo sapiens, 48 h exposure
Procedure: as §1

LOX IMVI = experiment: NCI SRB cytotoxicity, melanoma LOX IMVI; assay type: cell-based; conditions: Homo sapiens, 48 h exposure
Procedure: as §1

MALME-3M = experiment: NCI SRB cytotoxicity, melanoma MALME-3M; assay type: cell-based; conditions: Homo sapiens, 48 h exposure
Procedure: as §1

MDA-MB-435 = experiment: NCI SRB cytotoxicity, melanoma MDA-MB-435; assay type: cell-based; conditions: Homo sapiens, Melanoma panel MDA-MB-435, 48 h exposure
Procedure: as §1

SK-MEL-2 = experiment: NCI SRB cytotoxicity, melanoma SK-MEL-2; assay type: cell-based; conditions: Homo sapiens, 48 h exposure
Procedure: as §1

UACC-62 = experiment: NCI SRB cytotoxicity, melanoma UACC-62; assay type: cell-based; conditions: Homo sapiens, 48 h exposure
Procedure: as §1

IGROV1 = experiment: NCI SRB cytotoxicity, ovarian IGROV1; assay type: cell-based; conditions: Homo sapiens, IGROV-1, 48 h exposure
Procedure: as §1

OVCAR-4 = experiment: NCI SRB cytotoxicity, ovarian OVCAR-4; assay type: cell-based; conditions: Homo sapiens, 48 h exposure
Procedure: as §1

OVCAR-8 = experiment: NCI SRB cytotoxicity, ovarian OVCAR-8; assay type: cell-based; conditions: Homo sapiens, 48 h exposure
Procedure: as §1

NCI/ADR-RES = experiment: NCI SRB cytotoxicity, ovarian NCI/ADR-RES; assay type: cell-based; conditions: Homo sapiens, 48 h exposure
Procedure: as §1

SN12C = experiment: NCI SRB cytotoxicity, renal SN12C; assay type: cell-based; conditions: Homo sapiens, 48 h exposure
Procedure: as §1

UO-31 = experiment: NCI SRB cytotoxicity, renal UO-31; assay type: cell-based; conditions: Homo sapiens, 48 h exposure
Procedure: as §1

Non-small cell lung = experiment: NCI SRB cytotoxicity, non-small cell lung panel average; assay type: cell-based, human; conditions: average of cell lines; for LC50: read-out: Log10 LC50 (concentration in mol/L causing 50% cell death) (converted)
Procedure: as §1
(§2) Each cancer type represents the average of six to eight different cancer cell lines.

Colon = experiment: NCI SRB cytotoxicity, colon panel average; assay type: cell-based, human; conditions: average of cell lines; for LC50: read-out: Log10 LC50 (concentration in mol/L causing 50% cell death) (converted)
Procedure: as §1, §2

CNS = experiment: NCI SRB cytotoxicity, CNS panel average; assay type: cell-based, human; conditions: average of cell lines; for LC50: read-out: Log10 LC50 (concentration in mol/L causing 50% cell death) (converted)
Procedure: as §1, §2

Melanoma = experiment: NCI SRB cytotoxicity, melanoma panel average; assay type: cell-based, human; conditions: average of cell lines; for LC50: read-out: Log10 LC50 (concentration in mol/L causing 50% cell death) (converted)
Procedure: as §1, §2

human tumor cell lines = experiment: NCI SRB cytotoxicity, all fifty nine human tumor cell lines; assay type: cell-based; set-up: Log10 TGI mean graph midpoint (MG_MID): unit not given here; conditions: for GI50: Homo sapiens; for cytotoxicity: against cancer cell lines, in words; for LC50: read-out: Log10 LC50 mean graph midpoint (MG_MID) (converted)
Procedure: as §1
The mean graph midpoint values of Log10 TGI and Log10 LC50 as well as Log10 GI50 for compounds 7e, 8e, 10e, 11e, 12e, 13e and 8f is listed in Table-3. […] The mean graph mid points of Log10 TGI and Log10, LC50 have shown similar pattern to the log10 GI50 mean graph mid points.

HOP92 = experiment: NCI SRB cytotoxicity, non-small cell lung HOP92; assay type: cell-based; conditions: Homo sapiens, HOP-92, 48 h exposure
Procedure: as §1

[1] = across fifty nine cell lines in nine cell panels, read-out: GI50 value range
[2] = against human tumor cell lines, read-out: Log10 GI50 mean graph midpoint (MG_MID) (converted)
[3] = Homo sapiens, read-out: Log10 GI50 (concentration in mol/L causing 50% growth inhibition) (converted)

`COc1cc(-c2cc(/C=C/C(=O)c3ccc(F)c(F)c3)[nH]n2)cc(OC)c1OC` [13e, (E)-1-(3,4-difluorophenyl)-3-(3-(3,4,5-trimethoxyphenyl)-1H-pyrazol-5-yl)prop-2-en-1-one] was tested, and the GI50 (K-562) was 3.31 µM, the GI50 (RPMI-8226) was 1.76 µM and the GI50 (HOP-62) was 4.39 µM. It also gave a GI50 (NCIH322M) of 3.37 µM, a GI50 (HCT-116) of 4 µM and a GI50 (HT29) of 2.62 µM. It also gave a GI50 (KM12) of 3.06 µM, a GI50 (SF-539) of 3.76 µM and a GI50 (SNB-19) of 3.64 µM. For the same compound, the GI50 (LOX IMVI) was 3.18 µM, the GI50 (MALME-3M) was 2.96 µM and the GI50 (MDA-MB-435) was 2.88 µM. The GI50 (SK-MEL-2) was 2.3 µM, the GI50 (UACC-62) was 2.38 µM and the GI50 (IGROV1) was 3.62 µM. The GI50 (OVCAR-4) was 2.2 µM, the GI50 (OVCAR-8) was 2.88 µM and the GI50 (NCI/ADR-RES) was 3.46 µM. The GI50 (SN12C) was 3.37 µM, the GI50 (UO-31) was 2.63 µM and the LC50 (Non-small cell lung; Homo sapiens) was 87.1 µM. For the same compound, the “Log10 GI50 (concentration in mol/L causing 50% growth inhibition)” value (Non-small cell lung) was −5.54 mol/L, the “Log10 TGI (concentration in mol/L causing total growth inhibition (0% growth))” value (Non-small cell lung) was −4.75 mol/L and the LC50 (Colon; Homo sapiens) was 58.9 µM. For the same compound, the “Log10 GI50 (concentration in mol/L causing 50% growth inhibition)” value (Colon) was −5.52 mol/L, the “Log10 TGI (concentration in mol/L causing total growth inhibition)” value (Colon) was −4.70 mol/L and the LC50 (CNS; Homo sapiens) was 91.2 µM. The “Log10 GI50 (concentration in mol/L causing 50% growth inhibition)” value (CNS) was −5.47 mol/L, the “Log10 TGI (concentration in mol/L causing total growth inhibition (0% growth))” value (CNS) was −4.38 mol/L and the LC50 (Melanoma; Homo sapiens) was 64.6 µM. The “Log10 GI50 (concentration in mol/L causing 50% growth inhibition)” value (Melanoma) was −5.56 mol/L, the “Log10 TGI (concentration in mol/L causing total growth inhibition)” value (Melanoma) was −5.00 mol/L and the GI50 (human tumor cell lines; [1]) was 0.18 to 29.2 µM. For the same compound, the GI50 (human tumor cell lines; [2]) was 2.82 µM, the cytotoxicity (human tumor cell lines) was “significant cytotoxicity” and the “Log10 TGI mean graph midpoint (MG_MID)” value (human tumor cell lines; against human tumor cell lines) was −4.74. The LC50 (human tumor cell lines; against human tumor cell lines) was 81.3 µM.

`COc1cc(C(=O)/C=C/c2cc(-c3cc(OC)c(OC)c(OC)c3)n[nH]2)cc(OC)c1OC` [10e, (E)-1-(3,4,5-trimethoxyphenyl)-3-(3-(3,4,5-trimethoxyphenyl)-1H-pyrazol-5-yl)prop-2-en-1-one] showed a GI50 (K-562) of 2.96 µM, a GI50 (RPMI-8226) of 0.31 µM and a GI50 (HOP-62) of 1.46 µM. It also gave a GI50 (HOP92) of 0.86 µM, a GI50 (NCIH322M) of 2 µM and a GI50 (HCT-116) of 1.31 µM. It also gave a GI50 (HT29) of 1.79 µM, a GI50 (KM12) of 1.49 µM and a GI50 (SF-539) of 1.29 µM. It also gave a GI50 (SNB-19) of 1.66 µM, a GI50 (LOX IMVI) of 1.52 µM and a GI50 (MALME-3M) of 1.86 µM. The GI50 (MDA-MB-435) was 1.49 µM, the GI50 (SK-MEL-2) was 1.96 µM and the GI50 (UACC-62) was 1.78 µM. It also gave a GI50 (IGROV1) of 3.14 µM, a GI50 (OVCAR-4) of 1.45 µM and a GI50 (OVCAR-8) of 1.58 µM. For the same compound, the GI50 (NCI/ADR-RES) was 3.47 µM, the GI50 (SN12C) was 1.47 µM and the GI50 (UO-31) was 1.19 µM. The GI50 (Non-small cell lung; [3]) was 1.29 µM, the LC50 (Non-small cell lung; Homo sapiens) was 13.5 µM and the “Log10 TGI (concentration in mol/L causing total growth inhibition (0% growth))” value (Non-small cell lung) was −5.42 mol/L. For the same compound, the GI50 (Colon; [3]) was 1.62 µM, the LC50 (Colon; Homo sapiens) was 6.03 µM and the “Log10 TGI (concentration in mol/L causing total growth inhibition)” value (Colon) was −5.50 mol/L. The GI50 (CNS; [3]) was 1.62 µM, the LC50 (CNS; Homo sapiens) was 7.94 µM and the “Log10 TGI (concentration in mol/L causing total growth inhibition (0% growth))” value (CNS) was −5.46 mol/L. For the same compound, the GI50 (Melanoma; [3]) was 1.7 µM, the LC50 (Melanoma; Homo sapiens) was 6.46 µM and the “Log10 TGI (concentration in mol/L causing total growth inhibition)” value (Melanoma) was −5.47 mol/L. The GI50 (human tumor cell lines; [1]) was 0.18 to 29.2 µM, the GI50 (human tumor cell lines; [2]) was 1.55 µM and the cytotoxicity (human tumor cell lines) was “significant cytotoxicity”. For the same compound, the “Log10 TGI mean graph midpoint (MG_MID)” value (human tumor cell lines; against human tumor cell lines) was −5.36 and the LC50 (human tumor cell lines; against human tumor cell lines) was 11.5 µM.
